In experiment [1] the test system is FOXM1^A2 mRNA and FOXM1^BC mRNA. The experiment can be described thus: Splicing assay (FOXM1), qPCR of isoform mRNAs. It is filed as cell-based. To be noted: for EC50: read-out: Splice EC50 (nM) FoxM1 A mRNA increase (exon excluded). The gist of the method:
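RT-qPCR read-out after 24 h compound exposure at 37° C., 0.2% DMSO, top dose 10 μM with 4-fold 8-point dilutions, 20,000 cells per well. Copy numbers from plasmid standard curves, PPIA-normalized, expressed as isoform ratio relative to DMSO.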
A general note: Real-time PCR tracks product formation cycle by cycle.

The test system of another experiment is A-673 cells. Put plainly: Cell viability, crystal violet staining. It is filed as cell-based. As to conditions: Homo sapiens. An outline of the steps:
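Readout is absorbance at 570 nm of crystal violet, taken up in 0.1 M sodium citrate in 50% ethanol after staining with 0.5% dye in 25% methanol. Plates held 5×10^3 cells per well, and compounds were added one day after seeding for 72 hours. Data are relative to vehicle, mean±SE.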

Setting [2] is: 24 h, MDA-MB-231-luc cells, 24 hours, table does not say EC50 or IC50, read-out: FOXM1.
Setting [3] is: 24 h, U-118 cells, 24 hours, table does not say EC50 or IC50, read-out: FOXM1.
Where [4] appears, read: FoxM1 BC mRNA decrease (exon included), read-out: Splice IC50 (nM) FoxM1 BC mRNA decrease (exon included).
The mark [5] stands for this setting: Homo sapiens, A673, 24 h, A-673 cells, 24 hours, table does not say EC50 or IC50, read-out: FOXM1.
Setting [6] is: Homo sapiens, A-375, 24 h, A-375 cells, 24 hours, table does not say EC50 or IC50, read-out: FOXM1.
[7] abbreviates: Homo sapiens, BXPC-3, 24 h, BxPC-3 cells, 24 hours, table does not say EC50 or IC50, read-out: FOXM1.
Where [8] appears, read: Homo sapiens, Z-138, 24 h, Z-138 cells, 24 hours, table does not say EC50 or IC50, read-out: FOXM1.
Setting [9] is: A673, cell viability, read-out: A-673 IC50 (nM) Cell viability.
The mark [10] stands for this setting: A673, read-out: A-673 cell viability (IC50).

Where two headings read alike, the source gives them in different places.

A word on the EC50: it is the midpoint of the concentration-response curve. In the case of `CN(c1ccc(-c2ccc(-c3cn[nH]c3)cc2O)nn1)[C@@H]1C[C@H]2CC[C@@H](C1)N2` [compound 138, 2-(6-(((1R,3s,5S)-8-azabicyclo[3.2.1]octan-3-yl)(methyl)amino)pyridazin-3-yl)-5-(1H-pyrazol-4-yl)phenol], the IC50 fell in the range of 11 to 100 nM in experiment [1] (setting [2]); 11 to 100 nM in experiment [1] (setting [3]); 10 to 100 nM in experiment [1] (setting [4]); 11 to 100 nM in experiment [1] (setting [5]); 1 to 10 nM in experiment [1] (setting [6]); 101 to 200 nM in experiment [1] (setting [7]). Further, the IC50 in experiment [1] (Homo sapiens, DU-145, 24 h, DU-145 cells, 24 hours, table does not say EC50 or IC50, read-out: FOXM1) is 11 to 100 nM; in experiment [1] (Homo sapiens, Daoy, 24 h, Daoy cells, 24 hours, table does not say EC50 or IC50, read-out: FOXM1), 11 to 100 nM; in experiment [1] (Homo sapiens, G-401, 24 h, G-401 cells, 24 hours, table does not say EC50 or IC50, read-out: FOXM1) it was 101 to 200 nM; in experiment [1] (Homo sapiens, SH-SY5Y, 24 h, SH-SY5Y cells, 24 hours, table does not say EC50 or IC50, read-out: FOXM1), 11 to 100 nM; in experiment [1] (Homo sapiens, TT, 24 h, T.T cells, 24 hours, table does not say EC50 or IC50, read-out: FOXM1), 11 to 100 nM; in experiment [1] (setting [8]), 11 to 100 nM. The IC50 with A-673 cells (setting [9]) is 10 to 100 nM. For the same compound, the EC50 in experiment [1] is 10 to 100 nM.

With `CN(c1ccc(-c2ccc(-c3cn[nH]c3)cc2O)nn1)[C@H]1C[C@]2(C)CC[C@](C)(C1)N2` [compound 151, 2-(6-(((1R,3s,5S)-1,5-dimethyl-8-azabicyclo[3.2.1]octan-3-yl)(methyl)amino)pyridazin-3-yl)-5-(1H-pyrazol-4-yl)phenol], the IC50 was < 10 nM in experiment [1] (setting [4]); 1 to 10 nM in experiment [1] (setting [5]); 1 to 10 nM in experiment [1] (setting [6]); 101 to 200 nM in experiment [1] (Homo sapiens, Hep3B, 24 h, Hep-3B cells, 24 hours, table does not say EC50 or IC50, read-out: FOXM1); 11 to 100 nM in experiment [1] (Homo sapiens, K562, 24 h, K-562 cells, 24 hours, table does not say EC50 or IC50, read-out: FOXM1); 11 to 100 nM in experiment [1] (Homo sapiens, MDA-MB-468, 24 h, MDA-MB-468 cells, 24 hours, table does not say EC50 or IC50, read-out: FOXM1). Further, the IC50 was 1 to 10 nM in experiment [1] (Homo sapiens, NCI-H358, 24 h, NCI-H358 cells, 24 hours, table does not say EC50 or IC50, read-out: FOXM1); 101 to 200 nM in experiment [1] (Homo sapiens, PANC-1, 24 h, PANC-1 cells, 24 hours, table does not say EC50 or IC50, read-out: FOXM1); 11 to 100 nM in experiment [1] (Homo sapiens, PC-3, 24 h, PC-3 cells, 24 hours, table does not say EC50 or IC50, read-out: FOXM1); 11 to 100 nM in experiment [1] (Homo sapiens, U-87 MG, 24 h, U-87MG cells, 24 hours, table does not say EC50 or IC50, read-out: FOXM1); < 10 nM in the experiment with A-673 cells (setting [9]); ≤ 5 nM with A-673 cells (setting [10]). The concentration giving a half-maximal response (EC50) in experiment [1] is < 10 nM.

`CN(c1ccc(-c2ccc(-c3cn[nH]c3)cc2O)nn1)[C@@H]1C[C@H]2CCC[C@@H](C1)N2` [compound 160, 2-(6-(((1R,3s,5S)-9-azabicyclo[3.3.1]nonan-3-yl)(methyl)amino)pyridazin-3-yl)-5-(1H-pyrazol-4-yl)phenol]: the IC50 is 11 to 100 nM in experiment [1] (setting [2]); 1 to 10 nM in experiment [1] (setting [3]); < 10 nM in experiment [1] (setting [4]); 1 to 10 nM in experiment [1] (setting [5]); < 1 nM in experiment [1] (setting [6]); 11 to 100 nM in experiment [1] (setting [7]). Besides, the figures for the IC50 (in experiment [1] (setting [8]); with A-673 cells (setting [9]); in the experiment with A-673 cells (setting [10])) were 1 to 10 nM, < 10 nM and ≤ 5 nM, respectively. In addition, the 50% effective concentration (EC50) in experiment [1] is < 10 nM.

For the origin of these results see patent US11008572B2, “Methods and compositions for modulating splicing” (SKYHAWK THERAPEUTICS, INC., priority 2017, dated 2021).
